Reference: patent US20110190390A1, “METHODS AND MATERIALS FOR TREATING PANCREATIC CANCER” (priority 2010, published 2011)

Tests used:
[1] = test system: mPanINs of P48-Cre; LSL-K-rasG12D mice; experiment: mPanIN proliferation by BrdU incorporation (IHC) in P48-Cre; LSL-K-rasG12D mice; format: in vivo, mouse; settings: 60 mg/kg/day IP x 10 days, mice 7-9 months old, vs untreated age-matched mice, n=3/group
Method: FIG. 18. ATM inhibits proliferation of mPanINs in P48-Cre; LSL-K-ras^G12D mice. Three older P48-Cre; LSL-K-ras^G12D mice (7-9 months of age) were administered ATM (60 mg/kg/day) by IP injection for 10 days. Mice were injected with BrdU prior to sacrifice. Pancreata were isolated and analyzed by IHC for BrdU incorporation, as an indicator of the proliferative activity of the tissue. BrdU incorporation was compared to untreated, age-matched P48-Cre; LSL-K-ras^G12D mice. n=3/group.
(§1) ATM reduced mPanIN proliferation and SHH expression. In order to investigate the potential therapeutic role of ATM in pancreatic cancer, acute ATM treatment (60 mg/kg/day×10 days) of older P48-Cre; LSL-K-rasG12D mice (PC/+, Ras/+; 7-9 months old, they have already developed PanINs and adenomas) was performed. […] These same mice were analyzed for pancreatic expression of SHH. SHH increased in expression in P48-Cre; LSL-K-rasG12D mice, similar to PKCι.

Panc-1 cells = experiment: In vitro invasion through Matrigel matrix; format: cell-based, human; settings: 48 hour pre-incubation
Method: (§2) FIG. 13. Aurothiomalate (ATM) inhibits PDAC cells soft agar colony formation and invasion. A) Dose response curves to the growth inhibitory effects of ATM on soft agar colony formation in Panc-1, Capan-1, and MiaPaCa-2 human pancreatic cancer cells. B) Panc-1 cells were pre-incubated in increasing concentrations of ATM and then assayed for in vitro invasion through Matrigel matrix.
(§3) Three PDAC cell lines (Panc-1, Capan-1, and Miapaca-2), expressing varying amounts of PKCι (FIG. 13), were assayed for the ability to form colonies in soft agar (anchorage-independent growth) in the presence of increasing concentrations of aurothiomalate (ATM, FIG. 13A).

[2] = test system: Panc-1, Capan-1, and MiaPaCa-2 human pancreatic cancer cells; experiment: Soft agar colony formation (anchorage-independent growth); format: cell-based; settings: range over three PDAC cell lines (Panc-1, Capan-1, Miapaca-2); increasing concentrations
Method: as §2
Panc-1 and MiaPaCa-2 cells (5×10^3) were plated in soft agar and assessed for anchorage-independent growth as described elsewhere (Regala et al., J. Biol. Chem., 280:31109-15 (2005)).
as §3

SHH expression = experiment: Pancreatic SHH mRNA expression (qPCR) in P48-Cre; LSL-K-rasG12D mice; format: in vivo, mouse; settings: 60 mg/kg/day IP x 10 days, mice 7-9 months old, vs untreated age-matched mice, n=1/group
Method: FIG. 19. ATM inhibits induction of SHH expression in mPanINs of P48-Cre; LSL-K-ras^G12D mice. Three older P48-Cre; LSL-K-ras^G12D mice (7-9 months of age) were administered ATM (60 mg/kg/day) by IP injection for 10 days. mRNA was isolated from pancreata from treated, and untreated, age-matched P48-Cre; LSL-K-ras^G12D mice and analyzed by qPCR analysid for expression of SHH. n=1/group.
as §1

Q: What does the source list for `O=C(O)CC([S-])C(=O)O.[Au+]` (stereo not shown) [ATM, aurothiomalate]?
A: proliferation in the mPanINs (BrdU incorporation) [1]: significantly reduced; IC50 (Panc-1 cells): 7.4 µM; IC50 [2]: 20 to 61 µM; pancreatic SHH expression (SHH expression): significantly reduced
